The inhibition is the percentage by which the read-out fell short of the control.

What all share (type): in vivo
Assay [1] relates to Idaho pinto bean plants. Kind of assay: Axillary Bud Growth Inhibition Of Pinto Bean Plants. Conditions: 288 h; 625-ppm; twelve days after treatment; vs untreated check; read-out: Bud Inhib (percent inhibition of axillary bud growth). On the procedure:
Compounds of this invention were tested to determine their plant-growth-retarding effects on axillary bud growth of pinto beans.
Idaho pinto bean plants (13-16 days old) having monofoliate leaves fully developed and first trifoliates beginning to unfold were used. All growth 5 mm above the monofoliate leaf node was removed with forceps 1 to 4 hours prior to treatment with the test compounds. Four plants were used for each test compound.
A 625-ppm solution of the test compound in a 2% aqueous acetone solution containing a small amount of a nonionic surfactant was sprayed onto the pinto bean plants until runoff. After drying, the treated plants were transferred to a greenhouse maintained at 20°-23° C. and watered at regular intervals. Twelve days after treatment, the bud growth at the axil of the monofoliate leaf was determined and expressed as percent inhibition of axillary bud growth as compared to untreated check plants.

For assay [2], the system named is Tomato Late Blight organism Phytophthora infestans. Kind of assay: whole plant or invertebrate. The conditions noted are these: 168 h, read-out: Fungicidal Activity Control %, Tomato L.B.
Assay [3] deals with Bean Powdery Mildew organism Erisiphe polygoni. The assay can be described thus: Bean Powdery Mildew control. The conditions noted are these: 240 h, 10 days, vs untreated check, read-out: Fungicidal Activity Control %, Bean P.M. The procedure:
The compounds of the invention were tested for the control of the Bean Powdery Mildew organism […] polygoni. Seedling bean plants were sprayed with a 250 ppm solution of the test compound in acetone, water and a nonionic emulsifier. The sprayed plants were then inoculated 1 day later with organism. […] The percent disease control provided by a given test compound was based on the percent disease reduction relative to the untreated check plants.

Assay [4] concerns Cotton plants. Kind of assay: Cotton Regrowth. Conditions: Gossypium hirsutum, 13 to 18 days, 100% is total inhibition, read-out: Regrowth (percent inhibition of cotton regrowth). The procedure:
Compounds of this invention were tested to determine their plant-growth regulating effects on cotton leaf regrowth.
Cotton plants, 4 to 5 weeks old, containing 4 true leaves above the cotyledonary leaves are employed. Growth beyond the second true leaf was removed. Within 24 hours the plants are sprayed with a 2000 ppm solution of the test compound. After spraying, the plants are transferred to a greenhouse maintained at 85° F. (±5° F.) and incubated there for from 13 to 18 days. The plants during this period are sub-irrigated in 1/4" of water.
After this period, regrowth is determined as a percent inhibition of auxiliary bud regrowth--100% is total inhibition while 0% is no inhibition.

In assay [5] the test system is Watergrass (Echinochloa crusgalli). The assay can be described thus: Pre-emergent herbicidal test. Conditions: Echinochloa crus-galli, 504 h; pre-emergence; 33 micrograms/cm^2; 3 weeks; 0-to-100 scale; read-out: Herbicidal Activity Pre-Emergence % Control, Water Grass. On the procedure: (§1) An acetone solution of the test compound was prepared by mixing 750 mg of the compound, 220 mg of a nonionic surfactant and 25 ml of acetone. This solution was added to approximately 125 ml of water containing 156 mg of surfactant.
(§2) Seeds of the test vegetation were planted in a pot of […] and the test solution was sprayed uniformly onto the soil surface at a dose of 33 micrograms/cm^2. The pot was watered and placed in a greenhouse. […] At the end of this period, the herbicidal effectiveness of the compound was rated based on the physiological observations. A 0-to-100 scale was used, 0 representing no phytotoxicity, 100 representing complete kill.

The subject of assay [6] is Crabgrass (Digitaria sanguinalis). The assay can be described thus: Pre-emergent herbicidal test. Conditions: 504 h, pre-emergence, 33 micrograms/cm^2, 3 weeks, 0-to-100 scale, read-out: Herbicidal Activity Pre-Emergence % Control, Crab Grass. On the procedure:
as §1, §2

For assay [7], the system named is Lambsquarter (Chenopodium album). The assay can be described thus: Pre-emergent herbicidal test. Conditions: 504 h, pre-emergence, 33 micrograms/cm^2, 3 weeks, 0-to-100 scale, read-out: Herbicidal Activity Pre-Emergence % Control, L'Qtr. The procedure:
as §1, §2

Assay [8] deals with Soybean. The assay can be described thus: Pre-emergent herbicidal test. Conditions: Glycine max, 504 h; pre-emergence; 33 micrograms/cm^2; 3 weeks; 0-to-100 scale; read-out: Herbicidal Activity Pre-Emergence % Control, Soybean. On the procedure:
as §1, §2

Assay [9] relates to Mustard (Brassica arvensis). The assay can be described thus: Pre-emergent herbicidal test. The conditions noted are these: 504 h, pre-emergence, 33 micrograms/cm^2, 3 weeks, 0-to-100 scale. On the procedure:
as §1, §2

Assay [10] relates to Wild Oats (Avena fatura). The assay can be described thus: Pre-emergent herbicidal test. Conditions: 504 h, pre-emergence, 33 micrograms/cm^2, 3 weeks, 0-to-100 scale. The procedure: as §1, §2
In assay [11] the test system is Pigweed (Amaranthus retraflexus). The assay can be described thus: Pre-emergent herbicidal test. The conditions noted are these: 504 h, pre-emergence, 33 micrograms/cm^2, 3 weeks, 0-to-100 scale. On the procedure:
as §1, §2

Assay [12] concerns tomato Early Blight organism, Alternaria solani conidia. The assay can be described thus: Tomato Early Blight control. Conditions: 288 h, about 12 days in greenhouse, vs untreated check, read-out: Fungicidal Activity Control %, Tomato E.B. The procedure: Compounds of the invention were tested for the control of the tomato Early Blight organism, Alternaria solani conidia. Tomato (variety Bonny Best) seedlings of 6 to 7 weeks old were used. The tomato plants were sprayed with a 250 ppm solution of the test compound in an acetone-and-water solution containing a small amount of a nonionic emulsifier. The sprayed plants were inoculated one day later with the organism, placed in the environmental chamber and incubated at […] and 100% relative humidity for 24 hours. Following the incubation, the plants were maintained in a greenhouse for about 12 days. Percent diseases control was based on the percent disease development on untreated check plants.

The test system of assay [13] is celery late blight organism Septoria apii. Kind of assay: whole plant or invertebrate. The conditions noted are these: 336 h, read-out: Fungicidal Activity Control %, Celery L.B.
Assay [14] relates to Watergrass (Echinochloa crusgalli). The assay can be described thus: Post-emergent herbicidal test. The conditions noted are these: Echinochloa crus-galli, 504 h, post-emergence, 33 micrograms/cm^2, 3 weeks, 0-to-100 scale, read-out: Herbicidal Activity Post-Emergence % Control, Water Grass.
The subject of assay [15] is Crabgrass (Digitaria sanguinalis). Kind of assay: Post-emergent herbicidal test. Conditions: 504 h, post-emergence, 33 micrograms/cm^2, 3 weeks, 0-to-100 scale, read-out: Herbicidal Activity Post-Emergence % Control, Crab Grass.
Assay [16] concerns Lambsquarter (Chenopodium album). Kind of assay: Post-emergent herbicidal test. The conditions noted are these: 504 h, post-emergence, 33 micrograms/cm^2, 3 weeks, 0-to-100 scale, read-out: Herbicidal Activity Post-Emergence % Control, L'Qtr.
For assay [17], the system named is Soybean. Kind of assay: Post-emergent herbicidal test. Conditions: Glycine max, 504 h, post-emergence, 33 micrograms/cm^2, 3 weeks, 0-to-100 scale, read-out: Herbicidal Activity Post-Emergence % Control, Soybean.
Assay [18] deals with Mustard (Brassica arvensis). The assay can be described thus: Post-emergent herbicidal test. The conditions noted are these: 504 h, post-emergence, 33 micrograms/cm^2, 3 weeks, 0-to-100 scale.
Assay [19] concerns Wild Oats (Avena fatura). The assay can be described thus: Post-emergent herbicidal test. Conditions: 504 h, post-emergence, 33 micrograms/cm^2, 3 weeks, 0-to-100 scale.
The test system of assay [20] is Pigweed (Amaranthus retraflexus). Kind of assay: Post-emergent herbicidal test. Conditions: 504 h, post-emergence, 33 micrograms/cm^2, 3 weeks, 0-to-100 scale.
The subject of assay [21] is grape downy mildew organism Plasmopara viticola. Kind of assay: Grape Downy Mildew control (detached grape leaves). Conditions: vs untreated check, read-out: Fungicidal Activity Control %, Grape D.M.

For `CC(C)(C)c1ccc(COC(c2cccnc2)c2ccc(Cl)cc2Cl)cc1` (stereo not shown) [Compound 6, 3-pyridyl-2,4-dichlorophenylcarbinol 4-t-butylbenzylether], in assay [1], the pest or weed control at 625 µg/mL worked out at 60%. The pest or weed control at 250 ppm worked out at 0% in [2]; 100% in [3]; 40% in assay [12]; 78% in [13]; 50% in assay [21]. For the same compound, the inhibition at 2000 ppm in [4] is 90%. Besides, the pest or weed control at 33 µg/cm2 is 65% in assay [5]; 68% in assay [6]; 15% in assay [7]; 20% in assay [9]; 25% in assay [10]; 35% in assay [11]. The plant injury at 33 µg/cm2 in [8] was 0%. The pest or weed control at 5000 ppm, 33 µg/cm2 is 0% in assay [14]; 0% in [15]; 60% in assay [16]; 25% in [18]; 0% in assay [19]; 55% in assay [20]. The plant injury at 5000 ppm, 33 µg/cm2 in assay [17] was determined as 35%.
With `Clc1ccc(COC(c2cccnc2)c2ccc(Cl)cc2Cl)c(Cl)c1` (stereo not shown) [Compound 1, 3-pyridyl-2,4-dichlorophenylcarbinol 2,4-dichlorobenzylether], in assay [1], the pest or weed control at 625 µg/mL stood at 85%. In addition, the pest or weed control at 250 ppm came to 4% in assay [2], 100% in assay [3], 88% in [13] and 0% in assay [21]. Further, the inhibition at 2000 ppm in [4] is 55%. The pest or weed control at 33 µg/cm2 in assay [5], in assay [6], in assay [7], in [9], in [10] and in assay [11] was 0% each time. In [8], the plant injury at 33 µg/cm2 was 0%. For the same compound, the pest or weed control at 5000 ppm, 33 µg/cm2 came out at 0% in assay [14]; 0% in [15]; 20% in assay [16]; 30% in [18]; 0% in assay [19]; 30% in [20]. Besides, the plant injury at 5000 ppm, 33 µg/cm2 in [17] is 20%.
Take `c1ccc(-c2ccc(COC(c3ccccc3)c3cccnc3)cc2)cc1` (stereo not shown) [Compound 11, 3-pyridylphenylcarbinol 4-phenylbenzylether]: the pest or weed control at 625 µg/mL in assay [1] is 0%. The pest or weed control at 250 ppm in assay [2] was found to be 0%; in [3] it was 100%; in assay [12], 5%; in assay [13], 47%; in [21], 13%.
In the case of `OC(c1cccnc1)c1ccc(Cl)cc1Cl` (stereo not shown) [Compound 2, 3-pyridyl-2,4-dichlorophenylcarbinol], the pest or weed control at 625 µg/mL in assay [1] was 0%. The pest or weed control at 250 ppm was 0% in [2], 100% in assay [3], 31% in [13] and 25% in [21]. Moreover, the inhibition at 2000 ppm in assay [4] came out at 0%. The pest or weed control at 33 µg/cm2 in assay [5], in [6], in assay [7], in assay [9], in [10] and in assay [11] was 0% in each case. In addition, the plant injury at 33 µg/cm2 in assay [8] amounted to 0%. Besides, the pest or weed control at 5000 ppm, 33 µg/cm2 in [14], in [15], in assay [16], in assay [18], in assay [19] and in assay [20] was 0% throughout. The plant injury at 5000 ppm, 33 µg/cm2 in [17] was found to be 0%.

Source of the values: patent publication US4407806A, “Fungicidal, herbicidal and plant growth regulating pyridyl-containing ethers” (Chevron Research Company, priority 1981, dated 1983).
